Laboratory results taken from PMC8073686, “Characterization of Subtype Selective Cannabinoid CB2 Receptor Agonists as Potential Anti-Inflammatory Agents” (Pharmaceuticals, 2021).
Where two headings read alike, the source gives them in different places. Blank lines part the entries; values can stand above or below the compound they belong to.

How the values were obtained:
[1] = test system: TNF-α mRNA in Jurkat cells; design: method as in PMID 33712283; conditions: concentration not given; cited from earlier work
[2] = biological target: T1, CB2 (Homo sapiens, UniProt P34972); design: method as in PMID 30951717; conditions: competition with [3H]CP55,940; determined previously; cited from earlier work
T1 construct: expressed in transfected cells; host or cells: HEK293T cells, calcium phosphate transfection, membrane preparation
T1 sequence (P34972 whole entry): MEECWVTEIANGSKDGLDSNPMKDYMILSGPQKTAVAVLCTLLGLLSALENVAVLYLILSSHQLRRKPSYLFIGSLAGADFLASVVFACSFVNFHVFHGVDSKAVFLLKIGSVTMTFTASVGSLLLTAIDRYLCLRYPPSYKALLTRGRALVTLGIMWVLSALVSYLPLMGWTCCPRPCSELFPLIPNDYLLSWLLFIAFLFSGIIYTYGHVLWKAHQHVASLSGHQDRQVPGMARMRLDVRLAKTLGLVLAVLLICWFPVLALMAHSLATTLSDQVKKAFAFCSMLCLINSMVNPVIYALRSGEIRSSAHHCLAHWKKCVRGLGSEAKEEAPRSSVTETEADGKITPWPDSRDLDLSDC

[3] = biological target: T1, CB2; design: method as in PMID 30951717; conditions: stimulation of [35S]GTPγS binding; determined previously; cited from earlier work
[4] = test system: TNF-α production in Jurkat cells; design: method as in PMID 33712283; conditions: concentration not given; cited from earlier work
[5] = biological target: T2, CB1 receptor (Homo sapiens, UniProt P21554); design: method as in PMID 30951717; conditions: cited from earlier work
T2 construct: expressed in transfected cells; host or cells: HEK293T cells (called 'HEK293 cells' in Results), calcium phosphate transfection, membrane preparation
T2 sequence (P21554 whole entry): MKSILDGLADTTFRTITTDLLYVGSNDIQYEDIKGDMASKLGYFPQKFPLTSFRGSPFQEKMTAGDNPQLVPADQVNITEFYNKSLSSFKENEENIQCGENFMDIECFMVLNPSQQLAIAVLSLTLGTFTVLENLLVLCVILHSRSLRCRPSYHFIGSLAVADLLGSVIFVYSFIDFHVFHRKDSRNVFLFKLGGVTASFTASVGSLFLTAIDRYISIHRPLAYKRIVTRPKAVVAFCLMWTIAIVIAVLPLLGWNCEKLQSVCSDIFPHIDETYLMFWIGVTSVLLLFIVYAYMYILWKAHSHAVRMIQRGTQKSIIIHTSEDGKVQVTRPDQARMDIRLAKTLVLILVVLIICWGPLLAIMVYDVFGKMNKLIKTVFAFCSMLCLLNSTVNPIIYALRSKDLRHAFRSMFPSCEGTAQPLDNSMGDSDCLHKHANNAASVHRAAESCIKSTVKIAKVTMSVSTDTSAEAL

[6] = biological target: T1, CB2; experiment: Competitive [3H]CP55,940 radioligand binding, CB2-transfected HEK293T cell membrane
Description: (§1) To evaluate binding affinity of ABK5 analogs that have a difference in the position of substituents in the N-phenyl ring (Figure 1), we performed competitive radiolabeled ligand binding assays using cell membrane from HEK293T cells transfected with human CB2 receptors. […] ABK5-1, ABK5-2, and ABK5-6 dose-dependently competed with [^3H]CP55,940 and decreased the specific binding of the radiolabeled agonist, which reflects the binding of test compounds to CB2. […] Therefore, ABK5-5 was not considered for further evaluation in this study. […] We also examined CB2 selectivity (versus CB1) of the three compounds by performing similar binding assays using membrane from CB1 expressing HEK293 cells instead of CB2 expressing cells. […] Therefore, ABK5-1 and 5-2 maintained the CB2 subtype selectivity of ABK5.
(§2) In the experiment, 1 × 10^6 HEK293T cells were seeded in a 10-cm cell culture dish and cultured for 24 h. Cells were transfected with CB1 or CB2 using the calcium phosphate method. Approximately one day after transfection, cells were harvested and centrifuged at 4 °C for 5 min at 500× g. The pellet was washed with phosphate buffered saline (PBS) twice and resuspended in PBS containing 1% protease-inhibitor cocktail (Sigma-Aldrich, St. Louis, MO, USA) consisting of 104 mM 4-(2-aminoethyl) benzene sulfonyl fluoride hydrochloride (AEBSF), 80 μM apronitin, 4 mM bestatin, 1.64 mM E-64, 2 mM leupeptin, 1.5 mM pepstatin A. Then the cells were subjected to nitrogen cavitation under 750 psi for 5 min using a Parr cell disruption bomb. The lysate was centrifuged at 500× g for 10 min at 4 °C and the supernatant was spun at 116,000× g for 45 min at 4 °C. The pellet, consisting of the cell membrane expressing CB1 or CB2, was resuspended in TME buffer solution (25 mM Tris-HCl, 5 mM MgCl2, and 1 mM EDTA, pH 7.4) with 7% (w/v) sucrose/TME buffer. The concentration of the membrane protein was determined by the Bradford assay (Bradford, 1976).
Membrane protein was mixed with 1 nM to 10 μM of the test compounds and 1 nM [^3H]CP55,940 (164.9 Ci/mmol; PerkinElmer life Sciences, Waltham, MA, USA), and TME buffer supplemented with 0.2% BSA was used to bring the total volume to 200 μL. [^3H]CP55,940 acts as tracer and agonists that bind the target receptor compete with [^3H]CP55,940. Samples were incubated for 1 h at 30 °C. Ten μM unlabeled CP55,940 was used to determine non-specific binding. […] A Beckman Coulter 6500 liquid scintillation counter was used to measure the radioactivity of the samples.
Results are presented as the mean ± standard deviation (S.D.). […] The Ki values in the ligand binding assay were calculated using the Prism software (GraphPad Software Inc., San Diego, CA, USA), using IC50 values obtained from non-linear regression fitted to the one-site binding model. […]

[7] = biological target: T1, CB2; experiment: [35S]GTPγS binding assay (G-protein coupling), CB2 containing HEK293T cell membrane; format: biochemical; conditions: stimulation of [35S]GTPγS binding; mean ± S.D.
Procedure: We also examined if the compounds can induce G-protein coupling and act as CB2 agonists. Three compounds, ABK5-1, ABK5-2, and ABK5-6, were subjected to [^35S]GTPγS binding assays. Increasing concentrations, from 1 nM to 10 μM of the test compounds, were incubated with CB2 containing HEK293T cell membrane and [^35S]GTPγS, which binds to Gi/o in the membrane upon CB2 activation and G-protein coupling. All three compounds stimulated dose-dependent increases of specific [^35S]GTPγS binding (Figure 3).
as §2
GTPγS binding assay buffer ([…], pH 7.4, 3 mM MgCl2, 0.2 mM EGTA, and 100 mM NaCl) membrane protein, 1 nM to 10 μM of the test compounds, 0.1 nM [^35S] GTPγS (1250 Ci/mmol; PerkinElmer Life Sciences, Waltham, MA, USA), 0.1% fatty acid free BSA (w/v), 10 μM guanosine diphosphate (GDP) and GTPγS was incubated for 1 h at 30 °C with shaking. […] A Beckman Coulter 6500 liquid scintillation counter was used to measure the radioactivity of the samples. […]

[8] = biological target: T2, CB1 receptor; experiment: Competitive [3H]CP55,940 radioligand binding, membrane from CB1 expressing HEK293 cells
Description: as §1, §2
Membrane protein was mixed with 1 nM to 10 μM of the test compounds and 1 nM [^3H]CP55,940 (164.9 Ci/mmol; PerkinElmer life Sciences, Waltham, MA, USA), and TME buffer supplemented with 0.2% BSA was used to bring the total volume to 200 μL. [^3H]CP55,940 acts as tracer and agonists that bind the target receptor compete with [^3H]CP55,940. Samples were incubated for 1 h at 30 °C. Ten μM unlabeled CP55,940 was used to determine non-specific binding. Reactions were stopped by adding 5% BSA/TME buffer (w/v) and samples were filtered through a Brandel cell harvester using Whatman GF/C filter paper. Ultima Gold XR liquid scintillation cocktail (PerkinElmer Life Sciences, Waltham, MA, USA) was then added and vortexed. A Beckman Coulter 6500 liquid scintillation counter was used to measure the radioactivity of the samples.
Results are presented as the mean ± standard deviation (S.D.). The ligand binding assays and the GTPγS binding assays were both carried out in duplicate for three independent experiments. The Ki values in the ligand binding assay were calculated using the Prism software (GraphPad Software Inc., San Diego, CA, USA), using IC50 values obtained from non-linear regression fitted to the one-site binding model. The Cheng-Prusoff equation [48], which is used for calculation of Ki value is shown below. (1) Ki=IC50/1+L/Kd

SMILES: CCOC(=O)c1ccccc1NC(=O)CN(c1cccc(C)c1C)S(=O)(=O)c1ccccc1 [ABK5, ethyl 2(2-(N-(2,3-dimethylphenyl)phenylsulfonamido)acetamido)benzoate]
- decrease of TNF-α mRNA [1]: 33%
- Ki [2]: 0.016 ± 0.014 µM
- EC50 [3]: 0.004 ± 0.003 µM
- decrease of TNF-α protein level [4]: 30%
- Ki CB1 (CP55,940) ([5]; N.B. = no specific binding detected up to 10 μM, determined previously): N.B. ^c
- CB1 binding: no binding detected up to [5]: > 10 µM

- CB2 binding, extent as % of total binding ([6]; data not shown, Ki not calculated): ≤ 60%
SMILES: CCOC(=O)c1ccc(NC(=O)CN(c2cccc(C)c2C)S(=O)(=O)c2ccccc2)cc1 [ABK5-5]

- EC50 [7]: 0.01 ± 0.005 µM
- CB1 binding (in words) [8]: weak CB1 binding in the micromolar range
- Ki ([8]; competition with [3H]CP55,940, N.B. = no specific binding detected up to 10 μM of test compounds): > 1 µM
- Ki ([6]; competition with [3H]CP55,940, mean ± S.D.): 0.014 ± 0.002 µM
SMILES: CCOC(=O)c1ccccc1NC(=O)CN(c1cc(C)ccc1C)S(=O)(=O)c1ccccc1 [ABK5-6]
